Experimental findings from patent publication US10004701B2, “Methods and compositions for treating infection” (UNIVERSITY OF ROCHESTER, priority 2012, dated 2018) are described below.

Where a name gives a salt, the structure may show the parent alone. Read-outs that look alike come from different tables or passages of the source.

Common to all, as to test: AK assay 384-well format, Prestwick library screening
One experiment deals with E. faecium. It is filed as cell-based, Enterococcus faecium. The note with it: 50 μM final drug concentration; for fold induction at 50 µM: Enterococcus faecium, 3 h.
The subject of experiment [1] is S. aureus strain USA300-0114. The class given is cell-based, Staphylococcus aureus. The note with it: 50 μM final drug concentration; for fold induction at 50 µM: Staphylococcus aureus, USA300, 3 h.
Another experiment relates to K. pneumoniae. It is filed as cell-based, Klebsiella pneumoniae. The conditions noted are these: 50 μM final drug concentration; for fold induction at 50 µM: Klebsiella pneumoniae, 3 h.
Experiment [2] has as its system A. baumannii strain 98-37-09. The class given is cell-based, Acinetobacter baumannii. The conditions noted are these: 50 μM final drug concentration; for fold induction at 50 µM: Acinetobacter baumannii, 983709, 3 h.
The subject of another experiment is P. aeruginosa. It is filed as cell-based, Pseudomonas aeruginosa. The conditions noted are these: 50 μM final drug concentration; for fold induction at 50 µM: Pseudomonas aeruginosa, 3 h.
The subject of a further experiment is E. cloacae. The class given is cell-based, Enterobacter cloacae. The conditions noted are these: 50 μM final drug concentration; for fold induction at 50 µM: Enterobacter cloacae, 3 h.
The next experiment has as its system E. coli. The class given is cell-based, Escherichia coli. The conditions noted are these: 50 μM final drug concentration; for fold induction at 50 µM: Escherichia coli, 3 h.
Setting [3] is: cutoff for positive-scoring molecules 3-fold increase, read-out: AK-based Prestwick Library Screening Results, E. faecium (fold increase in extracellular AK activity).
The mark [4] stands for this setting: cutoff for positive-scoring molecules 3-fold increase, read-out: AK-based Prestwick Library Screening Results, S. aureus (fold increase in extracellular AK activity).
[5] abbreviates: cutoff for positive-scoring molecules 3-fold increase, read-out: AK-based Prestwick Library Screening Results, K. pneumoniae (fold increase in extracellular AK activity).
Where [6] appears, read: cutoff for positive-scoring molecules 3-fold increase, read-out: AK-based Prestwick Library Screening Results, A. baumannii (fold increase in extracellular AK activity).
Setting [7] is: cutoff for positive-scoring molecules 3-fold increase, read-out: AK-based Prestwick Library Screening Results, P. aeruginosa (fold increase in extracellular AK activity).
[8] abbreviates: cutoff for positive-scoring molecules 3-fold increase, read-out: AK-based Prestwick Library Screening Results, E. cloacae (fold increase in extracellular AK activity).
Setting [9] is: cutoff for positive-scoring molecules 3-fold increase, read-out: AK-based Prestwick Library Screening Results, E. coli (fold increase in extracellular AK activity).
Where [10] appears, read: 384-well format, cutoff for positive-scoring molecules 3-fold increase, read-out: AK-based Prestwick Library Screening Results, E. faecium (increase in extracellular AK activity).
The mark [11] stands for this setting: 384-well format, cutoff for positive-scoring molecules 3-fold increase, read-out: AK-based Prestwick Library Screening Results, S. aureus (increase in extracellular AK activity).
The mark [12] stands for this setting: 384-well format, cutoff for positive-scoring molecules 3-fold increase, read-out: AK-based Prestwick Library Screening Results, K. pneumoniae (increase in extracellular AK activity).
The mark [13] stands for this setting: 384-well format, cutoff for positive-scoring molecules 3-fold increase, read-out: AK-based Prestwick Library Screening Results, A. baumannii (increase in extracellular AK activity).
[14] abbreviates: 384-well format, cutoff for positive-scoring molecules 3-fold increase, read-out: AK-based Prestwick Library Screening Results, P. aeruginosa (increase in extracellular AK activity).
[15] abbreviates: 384-well format, cutoff for positive-scoring molecules 3-fold increase, read-out: AK-based Prestwick Library Screening Results, E. cloacae (increase in extracellular AK activity).
Setting [16] is: 384-well format, cutoff for positive-scoring molecules 3-fold increase, read-out: AK-based Prestwick Library Screening Results, E. coli (increase in extracellular AK activity).

`CN(C)CCCO[C@@H]1[C@H]2OC(C)(C)O[C@H]2O[C@@H]1[C@H](O)CO` [Amiprilose hydrochloride]: the fold induction at 50 µM in the experiment on E. faecium (setting [3]) worked out at 1.1; in experiment [1] (setting [4]) it was 1.3; in the experiment on K. pneumoniae (setting [5]), 0.9; in experiment [2] (setting [6]), 1.2; with P. aeruginosa (setting [7]), 1.1; in the experiment on E. cloacae (setting [8]) it was 1.5. In addition, the fold induction at 50 µM with E. coli (setting [9]) turned out to be 1.3.

As to `CN(C)CCC=C1c2ccccc2CCc2ccccc21.Cl` [Amitryptiline hydrochloride], in the experiment on E. faecium (planktonic E. faecium, 384-well, […]), the “AK-based Prestwick Library Screening Results: E. faecium (increase in extracellular AK activity)” value amounted to 1.0. In experiment [1] (planktonic S. aureus, 384-well, […]), the “AK-based Prestwick Library Screening Results: S. aureus (increase in extracellular AK activity)” value amounted to 1.4. Besides, the “AK-based Prestwick Library Screening Results: K. pneumoniae (increase in extracellular AK activity)” value in the experiment on K. pneumoniae (planktonic K. pneumoniae, 384-well, […]) was determined as 1.1. Also, in experiment [2] (planktonic A. baumannii, 384-well, […]), the “AK-based Prestwick Library Screening Results: A. baumannii (increase in extracellular AK activity)” value is 1.3. Besides, the “AK-based Prestwick Library Screening Results: P. aeruginosa (increase in extracellular AK activity)” value in the experiment with P. aeruginosa (planktonic P. aeruginosa, 384-well, […]) amounted to 1.0. In the experiment with E. cloacae (planktonic E. cloacae, 384-well, […]), the “AK-based Prestwick Library Screening Results: E. cloacae (increase in extracellular AK activity)” value came out at 1.8. Besides, the “AK-based Prestwick Library Screening Results: E. coli (increase in extracellular AK activity)” value with E. coli (planktonic E. coli, 384-well, […]) is reported as 1.2.

Consider `CCN(CC)Cc1cc(Nc2ccnc3cc(Cl)ccc23)ccc1O` [Amodiaquin dihydrochloride dihydrate], for which the fold induction at 50 µM with E. faecium (planktonic E. faecium, 384-well, cutoff for positive-scoring molecules 3-fold increase, read-out: AK-based Prestwick Library Screening Results: E. faecium (increase in extracellular AK activity)) came out at 1.1; in experiment [1] (planktonic S. aureus, 384-well, cutoff for positive-scoring molecules 3-fold increase, read-out: AK-based Prestwick Library Screening Results: S. aureus (increase in extracellular AK activity)) it was 1.3; in the experiment on K. pneumoniae (planktonic K. pneumoniae, 384-well, cutoff for positive-scoring molecules 3-fold increase, read-out: AK-based Prestwick Library Screening Results: K. pneumoniae (increase in extracellular AK activity)) it was 0.9; in experiment [2] (planktonic A. baumannii, 384-well, cutoff for positive-scoring molecules 3-fold increase, read-out: AK-based Prestwick Library Screening Results: A. baumannii (increase in extracellular AK activity)), 1.5; in the experiment on P. aeruginosa (planktonic P. aeruginosa, 384-well, cutoff for positive-scoring molecules 3-fold increase, read-out: AK-based Prestwick Library Screening Results: P. aeruginosa (increase in extracellular AK activity)), 1.2; in the experiment with E. cloacae (planktonic E. cloacae, 384-well, cutoff for positive-scoring molecules 3-fold increase, read-out: AK-based Prestwick Library Screening Results: E. cloacae (increase in extracellular AK activity)) it was 1.4. In the experiment on E. coli (planktonic E. coli, 384-well, cutoff for positive-scoring molecules 3-fold increase, read-out: AK-based Prestwick Library Screening Results: E. coli (increase in extracellular AK activity)), the fold induction at 50 µM came to 1.2.

On to `Clc1ccc2c(c1)C(N1CCNCC1)=Nc1ccccc1O2` [Amoxapine], for which the fold induction at 50 µM in the experiment on E. faecium (setting [10]) was found to be 0.9; in experiment [1] (setting [11]) it was 0.7; in the experiment with K. pneumoniae (setting [12]), 0.8; in experiment [2] (setting [13]) it was 0.8; in the experiment with P. aeruginosa (setting [14]), 0.9; with E. cloacae (setting [15]), 0.9. Further, in the experiment with E. coli (setting [16]), the fold induction at 50 µM came to 1.

For `CC1(C)S[C@@H]2[C@H](NC(=O)[C@H](N)c3ccc(O)cc3)C(=O)N2[C@H]1C(=O)O` [Amoxicillin], the fold induction at 50 µM with E. faecium (planktonic E. faecium, cutoff for positive-scoring molecules 3-fold increase, read-out: AK-based Prestwick Library Screening Results, E. faecium (increase in extracellular AK activity)) was 1.4; in experiment [1] (planktonic S. aureus, cutoff for positive-scoring molecules 3-fold increase, read-out: AK-based Prestwick Library Screening Results, S. aureus (increase in extracellular AK activity)) it was 0.4; with K. pneumoniae (planktonic K. pneumoniae, cutoff for positive-scoring molecules 3-fold increase, read-out: AK-based Prestwick Library Screening Results, K. pneumoniae (increase in extracellular AK activity)), 0.7; in experiment [2] (planktonic A. baumannii, cutoff for positive-scoring molecules 3-fold increase, read-out: AK-based Prestwick Library Screening Results, A. baumannii (increase in extracellular AK activity)), 1.7; with P. aeruginosa (planktonic P. aeruginosa, cutoff for positive-scoring molecules 3-fold increase, read-out: AK-based Prestwick Library Screening Results, P. aeruginosa (increase in extracellular AK activity)), 0.7; with E. cloacae (planktonic E. cloacae, cutoff for positive-scoring molecules 3-fold increase, read-out: AK-based Prestwick Library Screening Results, E. cloacae (increase in extracellular AK activity)) it was 1. For the same compound, in the experiment on E. coli (planktonic E. coli, cutoff for positive-scoring molecules 3-fold increase, read-out: AK-based Prestwick Library Screening Results, E. coli (increase in extracellular AK activity)), the fold induction at 50 µM is 10.6.

As for `C[C@@H]1[C@H](O)[C@@H](C)/C=C/C=C/C=C/C=C/C=C/C=C/C=C/[C@H](O[C@@H]2O[C@H](C)[C@@H](O)[C@H](N)[C@@H]2O)C[C@@H]2O[C@](O)(C[C@@H](O)C[C@@H](O)[C@H](O)CC[C@@H](O)C[C@@H](O)CC(=O)O[C@H]1C)C[C@H](O)[C@H]2C(=O)O` [Amphotericin B], the “AK-based Prestwick Library Screening Results: E. faecium (increase in extracellular AK activity)” value with E. faecium (planktonic E. faecium, 384-well, cutoff for positive-scoring molecules 3-fold increase) is given as 0.9. Further, the “AK-based Prestwick Library Screening Results: S. aureus (increase in extracellular AK activity)” value in experiment [1] (planktonic S. aureus, 384-well, cutoff for positive-scoring molecules 3-fold increase) is given as 0.5. The “AK-based Prestwick Library Screening Results: K. pneumoniae (increase in extracellular AK activity)” value with K. pneumoniae (planktonic K. pneumoniae, 384-well, cutoff for positive-scoring molecules 3-fold increase) came to 0.7. For the same compound, the “AK-based Prestwick Library Screening Results: A. baumannii (increase in extracellular AK activity)” value in experiment [2] (planktonic A. baumannii, 384-well, cutoff for positive-scoring molecules 3-fold increase) was determined as 0.5. In addition, in the experiment with P. aeruginosa (planktonic P. aeruginosa, 384-well, cutoff for positive-scoring molecules 3-fold increase), the “AK-based Prestwick Library Screening Results: P. aeruginosa (increase in extracellular AK activity)” value stood at 0.4. Also, the “AK-based Prestwick Library Screening Results: E. cloacae (increase in extracellular AK activity)” value with E. cloacae (planktonic E. cloacae, 384-well, cutoff for positive-scoring molecules 3-fold increase) amounted to 0.5. In addition, the “AK-based Prestwick Library Screening Results: E. coli (increase in extracellular AK activity)” value in the experiment on E. coli (planktonic E. coli, 384-well, cutoff for positive-scoring molecules 3-fold increase) came out at 0.5.

In the case of `CC1(C)S[C@@H]2[C@H](NC(=O)[C@H](N)c3ccccc3)C(=O)N2[C@H]1C(=O)O` [Ampicillin trihydrate], the fold induction at 50 µM in the experiment on E. faecium (setting [10]) was 1.1; in experiment [1] (setting [11]), 0.5; in the experiment on K. pneumoniae (setting [12]), 0.6; in experiment [2] (setting [13]) it was 1.6; with P. aeruginosa (setting [14]) it was 0.7; in the experiment with E. cloacae (setting [15]), 3.5. In the experiment with E. coli (setting [16]), the fold induction at 50 µM worked out at 12.2.

For `CCCc1ncc(C[n+]2ccccc2C)c(N)n1` [Amprolium hydrochloride], the fold induction at 50 µM in the experiment on E. faecium (setting [10]) worked out at 0.9; in experiment [1] (setting [11]), 0.5; in the experiment with K. pneumoniae (setting [12]) it was 0.6; in experiment [2] (setting [13]) it was 0.5; with P. aeruginosa (setting [14]), 0.4; in the experiment with E. cloacae (setting [15]), 0.4. The fold induction at 50 µM in the experiment on E. coli (setting [16]) was found to be 0.5.

With `Cc1c(N)c(=O)n(-c2ccccc2)n1C` [Ampyrone], the fold induction at 50 µM in the experiment with E. faecium (setting [10]) is 1; in experiment [1] (setting [11]), 0.8; in the experiment on K. pneumoniae (setting [12]), 0.7; in experiment [2] (setting [13]), 0.9; with P. aeruginosa (setting [14]), 1; with E. cloacae (setting [15]) it was 1. Further, the fold induction at 50 µM in the experiment on E. coli (setting [16]) turned out to be 0.9.

Consider `Nc1cc(-c2ccncc2)c[nH]c1=O` [Amrinone], for which the fold induction at 50 µM in the experiment with E. faecium (setting [3]) worked out at 1; in experiment [1] (setting [4]), 1.1; with K. pneumoniae (setting [5]), 1.1; in experiment [2] (setting [6]) it was 1.2; with P. aeruginosa (setting [7]), 1; with E. cloacae (setting [8]), 44. Besides, the fold induction at 50 µM in the experiment with E. coli (setting [9]) came out at 1.3.
